These are literature values, as cited in patent US20060193824A1, “Methods for the treatment of infectious and inflammatory airway diseases” (priority 2005, published 2006).

For series [1], the system named is respiratory epithelial cells.
In series [2] the test system is human airways.
In series [3] the test system is normal pancreatic cell lines. The settings on record: extracellular ATP.
Series [4] deals with human airways. This is another data set of the same source.

Turning to `CC(=O)OC(C)C[N+](C)(C)C` (centres unmarked) [methacholine], in the series with mucin secretion, the mucin secretion result is recorded as “effective to stimulate mucin secretion”. Consider `FC(F)(F)C(F)(F)C(F)(F)C(F)(F)C(F)(F)C(F)(F)C(F)(F)C(F)(F)Br` [perflubron, perfluorooctyl bromide], for which the mucin secretion entry with ferret trachea was “stimulates mucin secretion”. Turning to `CC(=O)N[C@H]1C(O)O[C@H](CO)[C@@H](O)[C@@H]1O` (some centres unmarked) [N-acetyl-glucosamine], the mucin release result in the series on GI tract is given as “stimulate mucin release in the GI tract”. With `CC(C)C[C@H](NP(=O)(O)O[C@@H]1O[C@@H](C)[C@H](O)[C@@H](O)[C@H]1O)C(=O)N[C@@H](Cc1c[nH]c2ccccc12)C(=O)O` [phosphoramidon], in the series with mucin release, the mucin release entry is given as “stimulate mucin release”.

With `CC(C[N+](C)(C)C)OC(N)=O` (centres unmarked) [bethanechol], the mucin secretion entry in the series on mucin secretion is “effective to stimulate mucin secretion”. For the compound Tumor necrosis factor alpha, the MUC5AC release result in series [1] was “stimulate MUC5AC release”.

Turning to “Epidermal growth factor: Epidermal growth factor, EGF, which can be obtained from Sigma (NSDSECPLSHDGYCLHDGVCMYIEALDKYACNCVVGYIGERCQYRDLKWWELR; Epidermal growth factor; UniProt P01133 971-1023, looked up)”, the mucin production result with mucin production is “effective to stimulate mucin production”. With `NCCc1c[nH]cn1` [Histamine], the mucous glycoprotein release entry in the series on human airways [2] was “stimulates mucous glycoprotein release”. In the case of `O=C(O)CNC(=O)C(CS)Cc1ccccc1` (centres unmarked) [Thiorphan], the mucin release entry in the series with mucin release was “stimulate mucin release”. As to `CC(C)C[C@H](NC(=O)C(CS)Cc1ccccc1)C(=O)O` (some centres unmarked) [leucine-thiorphan], in the series with mucin release, the mucin release result is “stimulate mucin release”. For the compound `Nc1ncnc2c1ncn2[C@@H]1O[C@H](COP(=O)(O)OP(=O)(O)OP(=O)(O)O)[C@@H](O)[C@H]1O` [ATP], the mucin protein secretion result in [3] is reported as “rapidly increased mucin protein secretion”. Take `C[N+](C)(C)CCOC(N)=O` [carbachol]: the mucin secretion entry with mucin secretion is on record as “effective to stimulate mucin secretion”. With `CCCCC/C=C\C/C=C\C/C=C\C/C=C\CCCC(=O)O` [Arachidonic acid], in the series on human airways [4], the mucin release entry is on record as “release mucin from human airways”. On to Interleukin 1, for which the mucus secretagogue activity result in the series with mucus secretion is “mucus secretagogue”.
